One assay concerns the target T1, THR beta-LBD (Homo sapiens, UniProt P10828).
T1 construct: THR beta-LBD (the final concentration is 0.5 nM) was added to the 384-well assay plate; purchased Invitrogen PV4686
T1 sequence (P10828 217-461 limits assumed): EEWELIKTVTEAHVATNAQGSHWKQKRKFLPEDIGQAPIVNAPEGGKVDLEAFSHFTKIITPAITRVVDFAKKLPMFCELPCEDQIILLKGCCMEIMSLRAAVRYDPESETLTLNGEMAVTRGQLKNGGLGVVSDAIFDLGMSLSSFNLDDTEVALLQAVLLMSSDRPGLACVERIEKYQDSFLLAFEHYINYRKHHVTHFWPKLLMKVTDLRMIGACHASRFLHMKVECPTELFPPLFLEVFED
Description: THR-β Coactivator Peptide Recruitment Assay (LanthaScreen TR-FRET). Format: biochemical. As to conditions: TR-FRET coactivator recruitment, THR beta-LBD 0.5 nM; for EC50: read-out: THRβ EC50. Put shortly:
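GST-tagged THR beta-LBD (0.5 nM) with test compound recruits fluorescein-SRC2-2 coactivator peptide (0.1 nM), detected with Tb-anti-GST antibody (2 nM).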
A general note: Time-resolved FRET reads energy transfer from a long-lived donor to a nearby acceptor.

The next assay has as its target T2, THR alpha-LBD (Homo sapiens, UniProt P10827).
T2 construct: except that THR alpha-LBD of a final concentration 0.25 nM was used; purchased Invitrogen PV4687
Put plainly: THR-α Coactivator Peptide Recruitment Assay (LanthaScreen TR-FRET). The following applies: TR-FRET coactivator recruitment, THR alpha-LBD 0.25 nM; for EC50: read-out: THRα EC50. Format: biochemical. The method in brief:
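TR-FRET coactivator recruitment with THR alpha-LBD at 0.25 nM final, Fluorescein-SRC2-2 peptide 0.1 nM and Tb-labeled anti-GST antibody 2 nM; 2 h incubation at room temperature. 520/495 nm emission ratio fitted to a four-parameter sigmoidal curve to give EC50.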

SMILES strings stand for the structures.

T2 sequence (P10827 163-410 isoform P10827-2 limits assumed, other chains not shown): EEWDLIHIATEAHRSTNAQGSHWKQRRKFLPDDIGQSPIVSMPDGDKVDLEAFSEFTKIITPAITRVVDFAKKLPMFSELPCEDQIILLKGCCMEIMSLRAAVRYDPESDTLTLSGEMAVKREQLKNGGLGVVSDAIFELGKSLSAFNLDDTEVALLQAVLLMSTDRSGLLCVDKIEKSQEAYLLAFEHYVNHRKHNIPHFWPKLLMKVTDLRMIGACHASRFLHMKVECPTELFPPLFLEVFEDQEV

Take `CS(=O)(=O)CC1(NS(=O)(=O)c2cc(Oc3c(Cl)cc(-n4nc(C(F)F)c(=O)[nH]c4=O)cc3Cl)ccc2O)CC1` [Compound 94, 5-[2,6-dichloro-4-[6-(difluoromethyl)-3,5-dioxo-1,2,4-triazin-2-yl]phenoxy]-2-hydroxy-N-[1-(methylsulfonylmethyl)cyclopropyl] benzene sulfonamide]: on THR beta-LBD, the “THRβ Emax” value is “B (75~90)” and the concentration for a half-maximal effect (EC50) (as a rule, the midpoint of the concentration-response curve) fell in the range of 2 to 20 nM. Moreover, on THR alpha-LBD, the “THRα Emax” value is “B (40~85)” and the EC50 fell in the range of 200 to 1000 nM.

On to `CS(=O)(=O)c1cc(Oc2c(Cl)cc(-n3nc(C(F)F)c(=O)[nH]c3=O)cc2Cl)ccc1O` [Compound 95], for which, at THR beta-LBD, the “THRβ Emax” value was “A (90~110)” and the EC50 was below 2 nM. On THR alpha-LBD, the “THRα Emax” value is on record as “A (85~110)” and the EC50 is below 2 nM.

As to `O=c1[nH]c(=O)n(-c2cc(Cl)c(Oc3ccc(O)c(S(=O)(=O)NC4C[S+]([O-])C4)c3)c(Cl)c2)nc1C(F)F` (stereo not drawn) [Compound 96, 5-[2,6-dichloro-4-[6-(difluoromethyl)-3,5-dioxo-1,2,4-triazin-2-yl]phenoxy]-2-hydroxy-N-(1-oxothietan-3-yl) benzenesulfonamide], on THR beta-LBD, the “THRβ Emax” value is “A (90~110)” and the EC50 lay within 20 to 100 nM. Also, at THR alpha-LBD, the “THRα Emax” value is reported as “A (85~110)” and the EC50 lay within 200 to 1000 nM.

Take `O=c1[nH]c(=O)n(-c2cc(Cl)c(Cc3ccc(O)c(S(=O)(=O)N[C@H]4C[C@H](O)C4)c3)c(Cl)c2)nc1C(F)F` [Compound 97, 5-[[2,6-dichloro-4-[6-(difluoromethyl)-3,5-dioxo-1,2,4-triazin-2-yl]phenyl]methyl]-2-hydroxy-N-(3-hydroxycyclobutyl)benzenesulfonamide]: on THR beta-LBD, the “THRβ Emax” value is reported as “A (90~110)” and the EC50 was below 2 nM. Also, at THR alpha-LBD, the “THRα Emax” value is recorded as “A (85~110)” and the EC50 is 2 to 200 nM.

Turning to `O=C(N[C@H]1CCOC1)c1cc(Oc2c(Cl)cc(-n3nc(C(F)F)c(=O)[nH]c3=O)cc2Cl)ccc1O` [Compound 98, (S)-5-(2,6-dichloro-4-(6-(difluoromethyl)-3,5-dioxo-4,5-dihydro-1,2,4-triazin-2 (3H)-yl)phenoxy)-2-hydroxy-N-(tetrahydrofuran-3-yl) benzamide], on THR beta-LBD, the “THRβ Emax” value is “B (75~90)” and the EC50 fell in the range of 2 to 20 nM. Besides, at THR alpha-LBD, the “THRα Emax” value is “B (40~85)” and the concentration for a half-maximal effect (EC50) was 2 to 200 nM.

Take `CN([C@H]1C[C@H](O)C1)S(=O)(=O)c1cc(Oc2c(Cl)cc(-n3nc(C(F)F)c(=O)[nH]c3=O)cc2Cl)ccc1O` [Compound 99]: on THR beta-LBD, the “THRβ Emax” value is on record as “B (75~90)” and the EC50 is 2 to 20 nM. On THR alpha-LBD, the “THRα Emax” value is listed as “A (85~110)” and the EC50 was in the range of 2 to 200 nM.

In the case of `O=c1[nH]c(=O)n(-c2cc(Cl)c(Oc3ccc(O)c(S(=O)(=O)[C@H]4C[C@@H](O)C4)c3)c(Cl)c2)nc1C(F)F` [Compound 100, 2-(3,5-dichloro-4-(4-hydroxy-3-(((1s,3s)-3-hydroxycyclobutyl)sulfonyl)phenoxy)phenyl)-6-(difluoromethyl)-1,2,4-triazine-3,5(2H,4H)-dione], on THR beta-LBD, the “THRβ Emax” value is “A (90~110)” and the EC50 is below 2 nM. Further, at THR alpha-LBD, the “THRα Emax” value is “A (85~110)” and the EC50 fell in the range of 2 to 200 nM.

With `O=C(NCC1(NS(=O)(=O)c2cc(Oc3c(Cl)cc(-n4nc(C(F)F)c(=O)[nH]c4=O)cc3Cl)ncc2O)CC1)C1CC1` [Compound 101], at THR beta-LBD, the “THRβ Emax” value is given as “B (75~90)” and the EC50 lay in the range of 2 to 20 nM. Moreover, at THR alpha-LBD, the “THRα Emax” value is on record as “B (40~85)” and the EC50 lay within 200 to 1000 nM.

In the case of `CNS(=O)(=O)c1cc(Oc2c(Cl)cc(-n3nc(C#N)c(=O)[nH]c3=O)cc2Cl)ncc1O` [Compound 102, 2-(2,6-dichloro-4-(6-cyano-3,5-dioxo-4,5-dihydro-1,2,4-triazin-2(3H)-yl)phenoxy)-5-hydroxy-N-methylpyridine-4-sulfonamide], on THR beta-LBD, the “THRβ Emax” value was “B (75~90)” and the half-maximal effective concentration (EC50) is 2 to 20 nM. On THR alpha-LBD, the “THRα Emax” value is “A (85~110)” and the concentration for a half-maximal effect (EC50) was 200 to 1000 nM.

The record behind these values is patent US12291518B2, “Thyroid hormone receptor agonists and use thereof” (Eccogene Inc., priority 2020, dated 2025).
